# Measurements as given in ChEMBL document CHEMBL3045592, “Studies of O,O-dimethyl α-(2,4-dichlorophenoxyacetoxy)ethylphosphonate (HW02) as a new herbicide. 1. Synthesis and herbicidal activity of HW02 and analogues as novel inhibitors of pyruvate dehydrogenase complex” (J Agric Food Chem, 2011).
# Tests used:
# [1] = tested on: Chenopodium album; test: Pre-emergence herbicidal activity against Chenopodium album assessed as growth inhibition at 150 ai g/ha after 20 days by green house test; format: functional
# [2] = tested on: Amaranthus spinosus; test: Post-emergence herbicidal activity against Amaranthus spinosus assessed as growth inhibition at 450 ai g/ha after 20 days by green house test; format: functional
# [3] = tested on: Amaranthus spinosus; test: Post-emergence herbicidal activity against Amaranthus spinosus assessed as growth inhibition at 75 ai g/ha after 20 days by green house test; format: functional
# [4] = tested on: Pisum sativum; test: Post-emergence herbicidal activity against Pisum sativum Zhongwan-2 (pea) assessed as growth inhibition at 450 ai g/ha after 20 days by green house test; conditions: Lathyrus oleraceus
# [5] = tested on: Setaria viridis; test: Pre-emergence herbicidal activity against Setaria viridis (green foxtail) assessed as growth inhibition at 75 ai g/ha after 20 days by green house test; format: functional
# [6] = tested on: Abutilon theophrasti; test: Pre-emergence herbicidal activity against Abutilon theophrasti (velvetleaf) assessed as growth inhibition at 75 ai g/ha after 20 days by green house test; format: functional
# [7] = tested on: Amaranthus spinosus; test: Pre-emergence herbicidal activity against Amaranthus spinosus assessed as growth inhibition at 150 ai g/ha after 20 days by green house test; format: functional
# [8] = tested on: Brassica rapa subsp. oleifera; test: Pre-emergence herbicidal activity against Brassica rapa subsp. oleifera Si Yue Man assessed as growth inhibition at 1500 ai g/ha after 20 days by green house test; format: functional
# [9] = tested on: Digitaria sanguinalis; test: Post-emergence herbicidal activity against Digitaria sanguinalis (hairy crabgrass) assessed as growth inhibition at 1500 ai g/ha after 20 days by green house test; format: functional
# [10] = tested on: Digitaria sanguinalis; test: Post-emergence herbicidal activity against Digitaria sanguinalis (hairy crabgrass) assessed as growth inhibition at 150 ai g/ha after 20 days by green house test; format: functional
# [11] = target: T1, Pyruvate dehydrogenase complex (Pisum sativum) (UniProt P52902+P52904); test: Inhibition of PDHc in Pisum sativum Zhongwan-2 (pea) shoot mitochondria assessed as decrease in rate of NADH formation using sodium pyruvate as substrate at 100 microg/g preincubated for 25 min before substrate addition measured after 1 min by spectrophotometric assay; format: protein-complex assay; conditions: Lathyrus oleraceus
# [12] = target: T1, Pyruvate dehydrogenase complex (Pisum sativum); test: Inhibition of PDHc in Pisum sativum Zhongwan-2 (pea) shoot mitochondria assessed as decrease in rate of NADH formation using sodium pyruvate as substrate at 1000 microg/g preincubated for 25 min before substrate addition measured after 1 min by spectrophotometric assay; format: protein-complex assay; conditions: Lathyrus oleraceus
# [13] = target: T1, Pyruvate dehydrogenase complex (Pisum sativum); test: Inhibition of PDHc in Pisum sativum Zhongwan-2 (pea) shoot mitochondria assessed as decrease in rate of NADH formation using sodium pyruvate as substrate at 10 microg/g preincubated for 25 min before substrate addition measured after 1 min by spectrophotometric assay; format: protein-complex assay; conditions: Lathyrus oleraceus
# [14] = tested on: Medicago sativa; test: Pre-emergence herbicidal activity against Medicago sativa (alfalfa) assessed as growth inhibition at 1500 ai g/ha after 20 days by green house test; format: functional
# [15] = tested on: Chenopodium album; test: Post-emergence herbicidal activity against Chenopodium album assessed as growth inhibition at 75 ai g/ha after 20 days by green house test; format: functional
# [16] = tested on: Abutilon theophrasti; test: Post-emergence herbicidal activity against Abutilon theophrasti (velvetleaf) assessed as growth inhibition at 150 ai g/ha after 20 days by green house test; format: functional
# [17] = tested on: Setaria viridis; test: Pre-emergence herbicidal activity against Setaria viridis (green foxtail) assessed as growth inhibition at 150 ai g/ha after 20 days by green house test; format: functional
# [18] = tested on: Echinochloa crus-galli; test: Post-emergence herbicidal activity against Echinochloa crus-galli (barnyard grass) assessed as growth inhibition at 450 ai g/ha after 20 days by green house test; format: functional
# [19] = tested on: Chenopodium album; test: Pre-emergence herbicidal activity against Chenopodium album assessed as growth inhibition at 450 ai g/ha after 20 days by green house test; format: functional
# [20] = tested on: Setaria viridis; test: Post-emergence herbicidal activity against Setaria viridis (green foxtail) assessed as growth inhibition at 450 ai g/ha after 20 days by green house test; format: functional
# [21] = tested on: Setaria viridis; test: Pre-emergence herbicidal activity against Setaria viridis (green foxtail) assessed as growth inhibition at 450 ai g/ha after 20 days by green house test; format: functional
# [22] = tested on: Brassica rapa subsp. oleifera; test: Post-emergence herbicidal activity against Brassica rapa subsp. oleifera Si Yue Man assessed as growth inhibition at 150 ai g/ha after 20 days by green house test; format: functional
# [23] = tested on: Amaranthus retroflexus; test: Post-emergence herbicidal activity against Amaranthus retroflexus assessed as growth inhibition at 300 ai g/ha after 20 days by green house test; format: functional
# [24] = tested on: Cardamine hirsuta; test: Post-emergence herbicidal activity against Cardamine hirsuta assessed as growth inhibition at 450 ai g/ha after 20 days by green house test; format: functional
# [25] = tested on: Brassica rapa subsp. oleifera; test: Post-emergence herbicidal activity against Brassica rapa subsp. oleifera Si Yue Man assessed as growth inhibition at 300 ai g/ha after 20 days by green house test; format: functional
# [26] = tested on: Cardamine hirsuta; test: Post-emergence herbicidal activity against Cardamine hirsuta assessed as growth inhibition at 300 ai g/ha after 20 days by green house test; format: functional
# [27] = tested on: Amaranthus retroflexus; test: Post-emergence herbicidal activity against Amaranthus retroflexus assessed as growth inhibition at 37.5 ai g/ha after 20 days by green house test; format: functional
# [28] = Toxicity against Zea mays Gao you 1 (maize) assessed as growth inhibition at 225 ai g/ha post-emergent application measured after 20 days by green house crop selectivity test; format: organism-based; conditions: Gao you 1, zea mays, in vivo, read-out: GI
# [29] = tested on: Cucumis sativus; test: Herbicidal activity against Cucumis sativus Jin 4 (cucumber) assessed as inhibition of stem growth after 3 days; format: functional, organism-based; conditions: Jin 4, 72 h
# [30] = tested on: Medicago sativa; test: Post-emergence herbicidal activity against Medicago sativa (alfalfa) assessed as growth inhibition at 150 ai g/ha after 20 days by green house test; format: functional
# [31] = tested on: Xanthium strumarium; test: Post-emergence herbicidal activity against Xanthium strumarium (cocklebur) assessed as growth inhibition at 450 ai g/ha after 20 days by green house test; format: functional
# [32] = tested on: Medicago sativa; test: Post-emergence herbicidal activity against Medicago sativa (alfalfa) assessed as growth inhibition at 37.5 ai g/ha after 20 days by green house test; format: functional
# [33] = tested on: Cucumis sativus; test: Herbicidal activity against Cucumis sativus Jin 4 (cucumber) assessed as inhibition of root growth after 3 days; format: functional, organism-based; conditions: Jin 4, 72 h
# [34] = Toxicity against Zea mays Gao you 1 (maize) assessed as growth inhibition at 600 ai g/ha post-emergent application measured after 20 days by green house crop selectivity test; format: organism-based; conditions: Gao you 1, zea mays, in vivo, read-out: GI
# [35] = tested on: Digitaria sanguinalis; test: Post-emergence herbicidal activity against Digitaria sanguinalis (hairy crabgrass) assessed as growth inhibition at 37.5 ai g/ha after 20 days by green house test; format: functional
# [36] = tested on: Cardamine hirsuta; test: Post-emergence herbicidal activity against Cardamine hirsuta assessed as growth inhibition at 18.75 ai g/ha after 20 days by green house test; format: functional
# [37] = tested on: Amaranthus retroflexus; test: Post-emergence herbicidal activity against Amaranthus retroflexus assessed as growth inhibition at 150 ai g/ha after 20 days by green house test; format: functional
# [38] = Toxicity against Zea mays Gao you 1 (maize) assessed as growth inhibition at 300 ai g/ha post-emergent application measured after 20 days by green house crop selectivity test; format: organism-based; conditions: Gao you 1, zea mays, in vivo, read-out: GI
# [39] = tested on: Amaranthus retroflexus; test: Post-emergence herbicidal activity against Amaranthus retroflexus assessed as growth inhibition at 18.75 ai g/ha after 20 days by green house test; format: functional
# [40] = tested on: Eclipta prostrata; test: Post-emergence herbicidal activity against Eclipta prostrata assessed as growth inhibition at 18.75 ai g/ha after 20 days by green house test; format: functional
compound,measurement,setting,value
COP(=O)(COC(=O)COc1cccc(C(F)(F)F)c1)OC,growth inhibition (GI),[1],0%
same,growth inhibition (GI),[2],57.5%
same,growth inhibition (GI),[3],0%
same,growth inhibition (GI),[4],10%
same,growth inhibition (GI),[5],0%
same,growth inhibition (GI),[6],0%
same,growth inhibition (GI),[7],0%
same,growth inhibition (GI),[8],75%
same,growth inhibition (GI),[9],<=50%
same,growth inhibition (GI),[10],0%
same,inhibition,[11],49.2%
same,inhibition,[12],60.7%
same,inhibition,[13],31.1%
same,growth inhibition (GI),[14],75%
same,growth inhibition (GI),[15],32.5%
same,growth inhibition (GI),[16],42.5%
same,growth inhibition (GI),[17],0%
same,growth inhibition (GI),[18],0%
same,growth inhibition (GI),[19],0%
same,growth inhibition (GI),[20],0%
same,growth inhibition (GI),[21],35%
COP(=O)(OC)C(C)OC(=O)COc1ccc(Cl)cc1Cl (stereo not drawn) [CLACYFOS],growth inhibition (GI),[1],0%
same,growth inhibition (GI),[22],97%
same,growth inhibition (GI),[2],100%
same,growth inhibition (GI),[3],90%
same,growth inhibition (GI),[4],97.5%
same,growth inhibition (GI),[23],100%
same,growth inhibition (GI),[5],0%
same,growth inhibition (GI),[6],0%
same,growth inhibition (GI),[24],100%
same,growth inhibition (GI),[25],100%
same,growth inhibition (GI),[7],0%
same,growth inhibition (GI),[8],90%
same,growth inhibition (GI),[9],50%
same,growth inhibition (GI),[10],0%
same,growth inhibition (GI),[26],100%
same,growth inhibition (GI),[27],82.5%
same,inhibition,[11],59%
same,inhibition at 480 h,[28],0%
same,IC50,[29],7.56 µM
same,growth inhibition (GI),[30],90%
same,growth inhibition (GI),[31],100%
same,inhibition,[12],73.8%
same,growth inhibition (GI),[32],72%
same,inhibition,[13],50.8%
same,IC50,[33],0.0025 µM
same,inhibition at 480 h,[34],0%
same,growth inhibition (GI),[14],90%
same,growth inhibition (GI),[15],92.5%
same,growth inhibition (GI),[35],0%
same,growth inhibition (GI),[36],75%
same,growth inhibition (GI),[16],100%
same,growth inhibition (GI),[17],0%
same,growth inhibition (GI),[37],96%
same,inhibition at 480 h,[38],0%
same,growth inhibition (GI),[18],35%
same,growth inhibition (GI),[19],0%
same,growth inhibition (GI),[20],0%
same,growth inhibition (GI),[21],35%
same,growth inhibition (GI),[39],65%
same,growth inhibition (GI),[40],56%
"O=C(O)COc1ccc(Cl)cc1Cl [2,4-DICHLOROPHENOXYACETIC ACID]",growth inhibition (GI),[1],0%
same,growth inhibition (GI),[2],92.5%
same,growth inhibition (GI),[3],60%
same,growth inhibition (GI),[5],0%
same,growth inhibition (GI),[6],0%
same,growth inhibition (GI),[7],0%
same,growth inhibition (GI),[8],90%
same,growth inhibition (GI),[9],50%
same,growth inhibition (GI),[10],0%
same,inhibition,[11],27.8%
same,IC50,[29],10.1 µM
same,inhibition,[12],48.1%
same,inhibition,[13],18.5%
same,IC50,[33],0.228 µM
same,growth inhibition (GI),[14],90%
same,growth inhibition (GI),[15],72.5%
same,growth inhibition (GI),[16],100%
same,growth inhibition (GI),[17],5.5%
same,growth inhibition (GI),[18],35%
same,growth inhibition (GI),[19],0%
same,growth inhibition (GI),[20],0%
same,growth inhibition (GI),[21],67.5%
